What was measured:
Rat Hepatic V1 Receptors = target: T1, Rat Hepatic V1 Receptors (Rattus norvegicus, UniProt P30560); assay: Binding Assay to Rat Hepatic V1 Receptors; conditions: for IC50: rat liver membranes, read-out: V1 IC50; for inhibition at 10 µM: 2 h, rat
T1 construct: Rat liver plasma membranes expressing the vasopressin V1 receptor subtypes; from tissue; host or cells: rat liver plasma membranes

[1] = target: T2, Rat Kidney Medullary V2 Receptors (Rattus norvegicus, UniProt Q00788); assay: Binding Assay to Rat Kidney Medullary V2 Receptors; conditions: for IC50: rat kidney medulla membranes, read-out: V2 IC50; for inhibition at 10 µM: rat
T2 construct: Medullary tissues from rat kidneys are dissected out; from tissue; host or cells: rat kidney medulla membranes
How it was run: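 IC50 derived from competition curves; bound tritium counted by liquid scintillation after filtration. Rat medullary kidney membranes (Tris-HCl pH 7.4, BSA, PMSF) were incubated 120 min to equilibrium with radioligand and test compound (added in 50% DMSO). Nonspecific binding: 1.0 μM unlabeled ligand.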

Vasopressin V1 = Vasopressin V1 Antagonist Activity in Conscious Rats (vasopressin vasopressor response); assay type: in vivo, rat
How it was run: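 Conscious rats are restrained supine, and under local 2% procaine a PE 10/20 cannula is passed through the ventral caudal tail artery into the lower abdominal aorta. The caudal vein is cannulated for intravenous dosing. Blood pressure is recorded with a Statham P23Db transducer, and vasopressin injections are repeated after compound dosing. Percent antagonism is calculated against the pre-drug vasopressor response taken as 100%.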

oxytocin receptors = target: T3, oxytocin receptors (Rattus norvegicus, UniProt P70536); assay: Oxytocin Receptor Binding; conditions: for IC50: 1.0 nM [3H]oxytocin; for inhibition at 10 µM: [3H]oxytocin
T3 construct: The uteri are dissected out, cleaned of fat and connective tissues; from tissue; host or cells: uterus of DES-treated female Sprague-Dawley rats
T3 sequence (P70536 1-388): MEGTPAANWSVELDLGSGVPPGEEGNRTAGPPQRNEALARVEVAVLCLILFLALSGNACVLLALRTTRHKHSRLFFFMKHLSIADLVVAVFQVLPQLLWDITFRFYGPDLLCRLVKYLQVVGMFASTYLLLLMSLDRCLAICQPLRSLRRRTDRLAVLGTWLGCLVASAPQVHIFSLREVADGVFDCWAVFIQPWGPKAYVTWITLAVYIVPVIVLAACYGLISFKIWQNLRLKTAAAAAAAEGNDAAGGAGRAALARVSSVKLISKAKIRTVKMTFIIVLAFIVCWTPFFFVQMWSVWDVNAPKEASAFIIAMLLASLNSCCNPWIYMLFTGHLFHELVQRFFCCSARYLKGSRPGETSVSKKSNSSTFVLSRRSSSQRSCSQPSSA
How it was run: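 IC50 is the concentration displacing 50% of 1.0 nM [3H]OT, incubated 60 min at 22 °C in pH 7.4 Tris/MgCl2 buffer plus protease inhibitors, then filtered. Receptor source: uterine membranes from rats given 0.3 mg/kg DES i.m. 18 h earlier. 1.0 uM cold OT defined non-specific binding.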

Vasopressin V2 = Vasopressin V2 Antagonist Activity in Conscious Hydrated Rats; assay type: in vivo, rat; conditions: 10 mg/kg orally, AVP 0.4 μg/kg i.p.
How it was run: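 Four-hour urine output, osmolality and electrolytes (Na+, K+, Cl−) recorded in water-loaded rats (30 mL/kg deionized water orally) given AVP i.p. at 0.4 μg/kg. Test compounds were given orally at 0.1–100 mg/kg 1 h before AVP; 2–4 rats per compound.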

T2 sequence (Q00788 whole entry): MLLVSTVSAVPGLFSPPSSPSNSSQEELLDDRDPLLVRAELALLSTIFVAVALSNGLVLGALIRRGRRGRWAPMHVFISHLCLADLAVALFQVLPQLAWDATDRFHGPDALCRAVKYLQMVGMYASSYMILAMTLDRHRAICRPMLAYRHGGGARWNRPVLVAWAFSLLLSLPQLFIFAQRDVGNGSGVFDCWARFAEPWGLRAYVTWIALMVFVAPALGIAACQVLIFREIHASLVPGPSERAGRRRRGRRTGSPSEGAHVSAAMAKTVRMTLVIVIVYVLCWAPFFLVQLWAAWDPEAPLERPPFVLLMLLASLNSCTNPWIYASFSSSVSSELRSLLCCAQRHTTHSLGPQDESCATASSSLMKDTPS
T1 sequence (P30560 whole entry): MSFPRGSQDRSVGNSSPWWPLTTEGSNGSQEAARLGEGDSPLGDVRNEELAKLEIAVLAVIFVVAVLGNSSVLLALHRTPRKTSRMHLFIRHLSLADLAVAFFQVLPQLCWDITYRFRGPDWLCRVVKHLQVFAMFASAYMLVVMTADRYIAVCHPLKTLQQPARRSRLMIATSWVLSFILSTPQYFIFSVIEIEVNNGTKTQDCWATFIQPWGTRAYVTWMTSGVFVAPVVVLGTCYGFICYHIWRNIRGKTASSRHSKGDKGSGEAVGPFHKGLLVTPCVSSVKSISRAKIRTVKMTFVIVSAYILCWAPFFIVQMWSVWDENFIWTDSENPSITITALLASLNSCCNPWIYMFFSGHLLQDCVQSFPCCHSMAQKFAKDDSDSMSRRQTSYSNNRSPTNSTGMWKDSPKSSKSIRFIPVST

| Structure (SMILES) | IC50 (Rat Hepatic V1 Receptors) [nM] | IC50 [1] [nM] | IC50 (oxytocin receptors) [nM] | inhibition at 10 µM (oxytocin receptors) [%] | inhibition at 10 µM (Rat Hepatic V1 Receptors) [%] | inhibition at 10 µM [1] [%] | Max. % Inhibition (Vasopressin V1; 30 mg/kg i.v.) [%] | Time (of max. % inhibition) (Vasopressin V1; 30 mg/kg i.v.) [min] | Osmolality (Vasopressin V2) [mOsm/kg] | Urine Volume (Vasopressin V2) [ml/4 hrs] | Max. % Inhibition (Vasopressin V1; 10 mg/kg i.v.) [%] | Time (of max. % inhibition) (Vasopressin V1; 10 mg/kg i.v.) [min] |
| --- | --- | --- | --- | --- | --- | --- | --- | --- | --- | --- | --- | --- |
| Cc1cccc(C(=O)Nc2ccc(C(=O)N3Cc4cccn4-c4ccccc43)cc2)c1C [Example 21, N-[4-(pyrrolo[1,2-a]quinoxalin-5(4H)-ylcarbonyl)phenyl]-2,3-dimethyl-benzamide] | 930 | 87 | 2450 | 67 | – | – | – | – | – | – | – | – |
| Cc1cc(C(=O)N2Cc3cccn3Cc3ccccc32)cc(C)c1NC(=O)c1ccc(Cl)cc1Cl [Example 473] | – | – | – | 20 | 90 | 56 | – | – | 1493 | 2.3 | – | – |
| O=C(Nc1ccc(C(=O)N2Cc3ccc(C(=O)C(Cl)(Cl)Cl)n3Cc3ccccc32)cc1)c1ccc(Cl)cc1Cl [Example 598, N-[4-[[3-(Trichloroacetyl)-5H-pyrrolo[2,1-c][1,4]benzodiazepin-10(11H) -yl]carbonyl]phenyl]-2,4-dichlorobenzamide] | – | – | – | 2 | 58 | 93 | – | – | – | – | – | – |
| CN(C)Cc1ccc2n1Cc1ccccc1N(C(=O)c1ccc(NC(=O)c3ccc(Cl)cc3Cl)cc1)C2 [Example 664] | 120 | 48 | 1400 | 95 | – | – | – | – | – | – | – | – |
| CCOC(=O)c1ccc2n1Cc1ccccc1N(C(=O)c1ccc(NC(=O)c3ccc(Cl)cc3Cl)c(C)c1)C2 [Example 592, Ethyl 10-[4-[(2,4-dichlorobenzoyl)amino]-3-methylbenzoyl]-10,11-dihydro-5H-pyrrolo[2,1-c][1,4]benzodiazepine-3-carboxylate] | 3300 | 240 | – | 41 | – | – | 37 | 90 | – | – | – | – |
| O=C(Nc1ccc(C(=O)N2Cc3ccc(CN4CCCC4)n3Cc3ccccc32)cc1)c1ccc(Cl)cc1Cl [Example 665, N-[4-[[3-(1-pyrrolidinylmethyl)-5H-pyrrolo[2,1-c][1,4]benzodiazepin-10(11H)-yl]carbonyl]phenyl)-2,4-dichlorobenzamide] | 56 | 39 | 1000 | 97 | – | – | – | – | – | – | – | – |
| O=C(Nc1ccc(C(=O)N2Cc3ccc(C(=O)C(Cl)(Cl)Cl)n3Cc3ccccc32)cc1)c1ccccc1C(F)(F)F [Example 597] | – | – | – | 42 | 100 | 97 | – | – | 1250 | 5.3 | – | – |
| Cc1ccccc1C(=O)Nc1ccc(C(=O)N2CCc3cccn3-c3ccccc32)cc1 [Example 297] | 270 | 33 | 4000 | 76 | – | – | – | – | 796 | 7 | – | – |
| O=Cc1ccc2n1Cc1ccccc1N(C(=O)c1ccc(NC(=O)c3ccc(Cl)cc3Cl)cc1)C2 [Example 580, 2,4-Dichloro-N-[4-[(3-formyl-5H-pyrrolo[2,1-c][1,4]benzodiazepin-10(11H)-yl)carbonyl]phenyl]benzamide] | 200 | 80 | 2960 | 79 | – | – | – | – | – | – | – | – |
| CCN(CC)Cc1ccc2n1Cc1ccccc1N(C(=O)c1ccc(NC(=O)c3ccc(Cl)cc3Cl)cc1)C2 [Example 667, N-[4-[[3-[(diethylamino)methyl]-5H-pyrrolo[2,1-c][1,4]benzodiazepin-10(11H)-yl]carbonyl]phenyl]-2,4-dichlorobenzamide] | 170 | 13 | 1600 | 89 | – | – | – | – | – | – | – | – |

More lines, main results first:

| IC50 (Rat Hepatic V1 Receptors) [nM] | IC50 [1] [nM] | IC50 (oxytocin receptors) [nM] | inhibition at 10 µM (oxytocin receptors) [%] | inhibition at 10 µM (Rat Hepatic V1 Receptors) [%] | inhibition at 10 µM [1] [%] | Structure (SMILES) | Max. % Inhibition (Vasopressin V1; 30 mg/kg i.v.) [%] | Time (of max. % inhibition) (Vasopressin V1; 30 mg/kg i.v.) [min] | Osmolality (Vasopressin V2) [mOsm/kg] | Urine Volume (Vasopressin V2) [ml/4 hrs] | Max. % Inhibition (Vasopressin V1; 10 mg/kg i.v.) [%] | Time (of max. % inhibition) (Vasopressin V1; 10 mg/kg i.v.) [min] |
| --- | --- | --- | --- | --- | --- | --- | --- | --- | --- | --- | --- | --- |
| 100 | 54 | 2450 | 67 | – | – | Cc1ccccc1CC(=O)Nc1ccc(C(=O)N2Cc3cccn3-c3ccccc32)cc1 [Example 36, N-[4-(pyrrolo[1,2-a]quinoxalin-5(4H)-ylcarbonyl)phenyl]-2-methylbenzene-acetamide] | 71 | 60 | – | – | – | – |
| 450 | 230 | 4700 | 61 | – | – | CN(C)C(C(=O)Nc1ccc(C(=O)N2Cc3cccn3Cc3ccccc32)cc1)c1ccccc1 (stereo not drawn) [Example 586, α-(Dimethylamino)-N-[4-(5H-pyrrolo[2,1-c][1,4]benzodiazepin-10(11H)-ylcarbonyl)phenyl]benzeneacetamide] | – | – | 1196 | 4.3 | – | – |
| – | – | 2900 | 79 | 91 | 82 | O=C(CCl)Nc1ccc(C(=O)N2Cc3cccn3Cc3ccccc32)cc1 [Example 589, 2-Chloro-N-[4-(5H-pyrrolo[2,1-c][1,4]benzodiazepin-10(11H) -ylcarbonyl)phenyl]acetamide] | – | – | – | – | – | – |
| – | – | – | 29 | 45 | 64 | O=C(CN1CCOCC1)N(Cc1ccccc1Cl)c1ccc(C(=O)N2Cc3cccn3Cc3ccccc32)cc1 [Example 591, N-[(2-Chlorophenyl)methyl]-N-[4-(5H-pyrrolo[2,1-c][1,4]benzodiazepin-10(11H) -ylcarbonyl)phenyl]-4-morpholineacetamide] | – | – | – | – | – | – |
| – | – | – | 32 | 41 | 89 | CCOC(=O)c1ccc2c(c1)N(C(=O)c1ccc(NC(=O)c3ccccc3C)cc1)Cc1cccn1C2 [Example 676, Ethyl 10,11-Dihydro-10-[4-[(2-methylbenzoyl)amino]benzoyl]-5H-pyrrolo[2,1-c][1,4]benzodiazepin-8-carboxylate] | – | – | – | – | – | – |
| 1200 | 480 | – | 26 | – | – | CN(C)CCSC(C(=O)Nc1ccc(C(=O)N2Cc3cccn3Cc3ccccc32)cc1)c1ccccc1 (stereo not drawn) [Example 584, α-[[2-(Dimethylamino)ethyl]thio]-N-[4-(5H-pyrrolo[2,1-c][1,4]benzodiazepin-10(11H)-ylcarbonyl)phenyl]benzeneacetamide] | – | – | 1718 | 2.5 | – | – |
| 56 | 11 | 1200 | 94 | – | – | Cc1cc(C(=O)N2Cc3cccn3Cc3ccccc32)ccc1NC(=O)c1ccccc1C [Example 96, N-[4-(5H-pyrrolo[2,1-c][1,4]benzodiazepin-10(11H)-ylcarbonyl)-2-methylphenyl]-2-methylbenzamide] | – | – | – | – | – | – |
| – | – | – | 46 | 82 | 83 | O=C(c1ccc(NP(=O)(c2ccccc2)c2ccccc2)cc1)N1Cc2cccn2Cc2ccccc21 [Example 491, 10-[4-[(Diphenylphosphinyl)amino]benzoyl]-10,11-dihydro-5H-pyrrolo-[2,1-c][1,4]benzodiazepine] | – | – | – | – | – | – |
| 54 | 27 | 4000 | 61 | – | – | O=C(Nc1ccc(C(=O)N2Cc3cccn3Cc3ccccc32)cc1)C(Cl)c1ccccc1 (stereo not drawn) [Example 583, α-Chloro-N-[4-(5H-pyrrolo[2,1-c][1,4]benzodiazepin-10(11H)-ylcarbonyl)phenyl]benzeneacetamide] | – | – | – | – | – | – |
| 27 | 29 | 260 | 96 | – | – | O=C(Nc1ccc(C(=O)N2Cc3cccn3Cc3ccccc32)cc1)c1cccc(Cl)c1Cl [Example 468, N-[4-(5H-pyrrolo[2,1-c][1,4]benzodiazepin-10(11H)-ylcarbonyl)phenyl]-2,3-dichlorobenzamide] | – | – | – | – | 68 | 30 |

— patent US5624923A, “Tricyclic diazepine vasopressin antagonists and oxytocin antagonists” (priority 1995, dated 1997)
